The values that follow are results of earlier work, collected in publication PMC5563391 (Investigational new drugs, 2015).

The data set has as its system patients with CML or Ph+ ALL. Conditions: phase 1 study; cited from earlier work.

For `CO[C@@H](C(=O)N1Cc2n[nH]c(NC(=O)c3ccc(N4CCN(C)CC4)cc3)c2C1)c1ccccc1` [danusertib], the patients with responses is given as 6 of 23.
